Consider 60 compounds from the METLIN SMRT retention time set (Domingo-Almenara et al. 2019).

The nature of this series: gradient 5% acetonitrile 3 min, to 50% in 2 min, to 85% in 15 min, held 3 min, 100 µL/min. As to conditions: column: Zorbax Extend-C18 2.1 x 50 mm; eluents: water / acetonitrile, 0.1% formic acid. Summed up:
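Retention times come from adduct peaks that were picked computationally and then checked by hand. The standards, pure and pooled in mixtures of ~100 molecules, were run on a Zorbax Extend-C18 column (2.1 × 50 mm, 1.8 μm) at 100 μL/min with water and acetonitrile, each with 0.1% formic acid. Detection was by quadrupole time-of-flight mass spectrometry in positive and negative ionization mode, with a dead volume of 40 μL and a dwell volume of 900 μL.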
In turn, `CCc1cccc(C)c1Nc1c(-c2ccc(Cl)cc2)nc2nc(C)cc(C)n12` registered an RP-LC retention time of 985 s. With `CCCN(CC1CCOC1)C(=O)c1cccc(Br)c1` (stereo not given) the figure was 852 s; with `CCc1nnc2nc(N3CCN(C(=O)c4ccc5c(c4)OCO5)CC3)cc(C)n12`, 611 s. With `CCOCC(=O)N1CC(F)(F)C[C@H]1c1nc(COC)no1` the figure was 675 s. In turn, `Cc1sc(-c2cc(C(F)(F)F)on2)cc1S(=O)(=O)N1CCN(c2ccccn2)CC1` had an RP-LC retention time of 891 s.

Consider `O=C(Nc1ccccc1Br)c1n[nH]nc1Nc1ccccc1`, for which the RP-LC retention time came out at 1100 s.

As for `Cc1ccc(CNC(=O)c2cc3c(s2)CCN(C(=O)c2ccccc2)C3)o1`, the RP-LC retention time is 881 s. As to `Cc1cc(C)n(CC(=O)N2CCN(c3ccccc3O)CC2)n1`, the RP-LC retention time is 604 s. To `O=C(CSc1nc2scc(-c3ccccc3)c2c(=O)[nH]1)c1ccccc1` belongs 936 s; to `COc1ccccc1-c1nc(Cn2nnc(-c3nc(-c4cccc(OC)c4OC)no3)c2C)c(C)o1`, 1050 s. With `Cn1cccc1Cc1nnc(SCC(=O)NCC2CCCO2)n1Cc1ccccc1` (stereo not given) the figure was 741 s; with `CCOc1ccc(C2Cn3nnc(-c4nc(-c5ccsc5)no4)c3CO2)cc1` (stereo not given), 1150 s. To `CCCNc1nnc(-c2nnc(CC)o2)c2ccccc12` belongs 647 s; to `Cc1ccc(C)c(NC(=O)CCc2nc(N3CCOCC3)c3c(C)noc3n2)c1`, 763 s.

`O=S(=O)(Nc1ccc(F)cc1)c1cccnc1Nc1ccc(F)c(F)c1` came in with an RP-LC retention time of 1080 s. To `Cc1cc(C)c(S(=O)(=O)N2CC(F)(F)C[C@H]2COc2cccnc2)cc1C` belongs 817 s; to `CCN1C(=O)NC(c2ccc(C)cc2C)C2=C1CN(CCC(=O)N1CCOCC1)C2=O` (stereo not given), 614 s; to `Cc1cc(C(=O)Nc2ccc(F)cc2F)nc2cc(-c3ccco3)nn12`, 1130 s. As for `CCOC(=O)N1CCN(c2nc(F)c3c(c2F)S(=O)(=O)CCN3C2CCCCC2)CC1`, the RP-LC retention time worked out at 1170 s.

The compound `CCNC(=O)c1n[nH]c2c1CCCC2` had an RP-LC retention time of 641 s. To `COc1ccc(NS(=O)(=O)c2ccc3c(c2)C(=O)N(C)c2ncccc2O3)cc1` belongs 844 s; to `O=C(Cc1ccccc1Cl)NC1CCN(c2cc(-c3ccccc3)[nH]n2)C1` (stereo not given), 721 s. With `Cc1ccc(Cl)cc1N1CCN(C(=O)CN2C(=O)CN(C)C(=O)c3ccccc32)CC1` the figure was 867 s. To `NC(=O)C1CCN(C(c2cccc(Cl)c2)c2sc3nc(-c4ccco4)nn3c2O)CC1` (stereo not given) belongs 717 s; to `O=C(CCc1conc1-c1ccc(F)cc1)NCc1ccccc1`, 865 s. `Cc1ccc(S(=O)(=O)NNC(=O)C23CCC(CC2)C3)cc1` had an RP-LC retention time of 873 s.

Compound `Cc1cc(NC(=O)c2c(O)c3cccnc3n(-c3ccc(F)cc3)c2=O)ccc1F` yielded an RP-LC retention time of 1250 s. To `CCCOc1ccc(C(=O)Nc2nnc(SCc3nnc(-c4ccccc4)o3)s2)cc1` belongs 1050 s; to `Cc1ccc(Cl)cc1NC(=O)N1CCC(c2nc(C(=O)N3CCCC3)c(C)o2)CC1`, 858 s. In the case of `Cn1cc(S(=O)(=O)N2CCCCC2)cc1C(=O)Nc1ccccc1`, the RP-LC retention time is 960 s. With `C[C@H]1C2Cc3ccc(O)cc3[C@@]1(C)CCN2CC1CC1` the figure was 669 s; with `CC(C)c1noc(-c2cccnc2-n2cnc(C(=O)Nc3ccc(F)cc3)c2)n1`, 890 s.

Consider `O=C(c1ccccc1F)N1CCCCC1c1nncn1CC1CC1` (stereo not given), for which the RP-LC retention time came to 698 s.

Turning to `CN(CC#N)C(=O)Cn1c(=O)c2cccn2c2ccccc21`, the RP-LC retention time is 705 s. To `Cn1cccc(C(=O)N2CCC(CNC(=O)c3ccc(Cl)s3)CC2)c1=O` belongs 610 s; to `CCN(CC)CCNC(=O)c1nc(-c2oc3ccc(C)cc3c2C)no1`, 695 s. With `CCN1CCN(C(=O)CN2C(=O)C3CCCCN3c3ccc(C(=O)N4CCCCC4)cc32)CC1` (stereo not given) the figure was 632 s; with `Cc1ccnc(OCC(=O)Nc2ccc(OC(F)(F)F)cc2)n1`, 771 s. With `Cc1ccc(S(=O)(=O)[C@H]2CS(=O)(=O)C[C@@H]2N2CCN(c3ccccc3)CC2)cc1` the figure was 920 s; with `CCn1cc(CCN2CCN(C(=O)c3cccs3)CC2)c2cccnc21`, 589 s; with `CCn1cc(-c2ccc(Cl)cc2)cc1C(=O)NCCCN1CCOCC1`, 709 s. Consider `CC(C(=O)N1CCN(c2cc(-c3ccc(Cl)cc3)[nH]n2)CC1)c1ccccc1` (stereo not given), for which the RP-LC retention time amounted to 921 s. To `CN1C(=O)CCc2cc(C(=O)NC3CC3)ccc21` belongs 626 s. To `CCC1(O)CCC12CCN(C(=O)CC(C)C)CC2` (stereo not given) belongs 744 s; to `COc1ccc(Cl)cc1S(=O)(=O)N1CCC(C(=O)Nc2ccccc2)CC1`, 913 s; to `CCCn1c(=O)sc2cc(S(=O)(=O)N3CCC(C(=O)NC(C)C)CC3)ccc21`, 818 s. With `CCc1ccc(NC(=O)C2CCCN(c3nc4c(s3)c(C)nn4-c3ccc(OC)cc3)C2)cc1` (stereo not given) the figure was 1360 s. As for `CCCN1C(=O)CCc2cc(NS(=O)(=O)c3cccs3)ccc21`, the RP-LC retention time stood at 797 s. With `CN(CC(=O)N1CCCCC1)S(=O)(=O)c1ccc2c(c1)CCCC(=O)N2` the figure was 676 s; with `CCc1ccc(CNC(=O)Cc2nnc(-c3cnccn3)o2)cc1`, 739 s. With `Cc1ccc(NC(=O)NCCn2c(-c3ccncc3)nc3cccnc32)cc1Cl`, the RP-LC retention time was found to be 666 s. To `COc1ccc(S(=O)(=O)NCc2ccc3c(c2)CCN3C(=O)c2ccccc2)cc1` belongs 904 s; to `COCCNS(=O)(=O)c1cc(-c2cc(C(F)(F)F)on2)sc1C`, 982 s.

Regarding `O=C(c1nc(-c2cccs2)cs1)N1CCN(c2ccccc2)CC1`, the RP-LC retention time was determined as 1130 s. With `CCc1noc(NC(C)=O)c1-c1ccc(C)c(S(=O)(=O)N(CC)CC)c1` the figure was 836 s; with `O=C(Nc1ccc(Oc2ccc(NC(=O)Nc3ccc([N+](=O)[O-])cc3)cc2)cc1)Nc1ccc([N+](=O)[O-])cc1`, 1110 s. To `O=C(c1cc(-c2cccnc2)n[nH]1)N1CCN(C(=O)c2cc3ccccc3[nH]2)CC1` belongs 633 s; to `COc1cc(C(=O)N2CCCC2c2nc(-c3ccccc3)no2)cc(OC)c1OC` (stereo not given), 910 s; to `CCN(C(C)=O)c1nc(-c2ccc(C3CCCCC3)cc2)cs1`, 848 s. Turning to `COc1ccc(NC(=O)c2cnc3c(c2)c(=O)n(C)c(=O)n3-c2ccccc2)cc1F`, the RP-LC retention time amounted to 858 s.
